Data as given in patent US8668937B2, “Topical nitric oxide systems and methods of use thereof” (Transdermal Biotechnology, Inc., priority 2011, dated 2014).
Entries after “also recorded” stand apart in the source; their conditions may differ.

Assay: Nitric oxide gas bubbled through carrier, change in weight noted
Type: physicochemical
Conditions: 25 °C
Description: This example illustrates one technique for preparing a composition in accordance with one embodiment of the invention. An accurate amount of a carrier (HNC 167-62) (see below) was introduced into a system. The carrier weight used in these experiments was approximately 250 g and the vessel size was 500 ml. The vessel was equipped with a mechanical stirrer, gas inlet, and gas outlet and was previously purged with argon for about an hour. The temperature of the carrier was kept at about 25-30° C. NO gas regulated at 5 psi (1 psi is about 6,900 Pa) and was then introduced at a controlled rate of about 1 bubble/s with continuous stirring. […] After 6 hours, the weight of the carrier had increased by 0.15%, by 12 hours by 0.25%, and by 24 hours by 0.56%. These increases in weight were believed to be significant considering the relative small molecular weight of NO versus the carrier. […] The carrier also can solidify upon cooling if the carrier is initially a solid at lower temperature.
Each carrier was taken in a 500 mL three necked flask equipped with a mechanical stirrer, gas inlet and a gas outlet. The system was purged with argon for one hour at room temperature (25° C.). Then nitric oxide gas was bubbled into the system. Then, nitric oxide gas was bubbled through carrier for stipulated amount of time. The changes in weight and color were noted. The details of individual experiments were as follows.

OCCCO [1,3-Propanediol, 1,3-propanediol]
% Wt. gain (NO gas bubbled 40 hr): 0.09%
Wt. Gain g (NO gas bubbled 40 hr): 0.16 g
weight gain when NO was passed through (in words) (neat, NO gas bubbled 40 hours): only negligible, if any, weight gain; also recorded: failed to gain any significant weight
